The target in one experiment is EGFR (Homo sapiens (Human), UniProt P00533). Description: A549 cell lysis and immunoassay, total EGFR degradation. The experiment is classed as cell-based. Also noted: key: Y: EGFR bound in cells and EGFR degradation occurred. The note with it: A549 cells. The procedure: A549 cells (ATCC) were cultured in Dulbecco's Modified Eagle's Medium (DMEM) (Wisent) supplemented with 10% FBS and 1% penicillin/streptomycin. Cells were seeded in 6-well plates at 530,000 cells/well and incubated at 37° C., 5% CO2 for 16 hours. Cells were starved in DMEM containing 1% FBS for 4 hours before they were treated with the indicated concentrations of compound or DMSO alone and incubated at 37° C., 5% CO2 for 24 hours. Prior to cell harvest and lysis, 50 ng/ml human epidermal growth factor (hEGF) (Sigma) was added to the cells and incubated at 37° C., 5% CO2 for 10 minutes. Conditioned media was discarded, and adherent cells were washed with PBS before they were scraped on ice. Cell suspensions were centrifugated at 2,000 RPM for 5 minutes at 4° C. and supernatants were discarded. Cell pellets were resuspended with 1× RIPA buffer (Millipore) and incubated on ice for 15 minutes. Protein lysates were extracted by centrifugating at 20,000 RPM for 20 minutes at 4° C. Proteins were separated and total EGFR protein levels were quantified by Simple Western Immunoassay (ProteinSimple) using the Protein Normalization Assay Module for Jess according to the manufacturer's protocol, using a protein concentration of 0.125 μg/μl and an antibody targeting EGFR (clone #EP38Y, Abcam) diluted to 1:400. Phosphorylated EGFR protein levels were quantified with the same assay using a protein concentration of 1 μg/μl and an antibody targeting pEGFR (Y1068) (Cell Signalling) diluted to 1:25. EGFR and phosphorylated EGFR levels were normalized to the Jess Protein Normalization Reagent loading control and subsequently to the DMSO control.
Chain of EGFR (P00533 25-1210): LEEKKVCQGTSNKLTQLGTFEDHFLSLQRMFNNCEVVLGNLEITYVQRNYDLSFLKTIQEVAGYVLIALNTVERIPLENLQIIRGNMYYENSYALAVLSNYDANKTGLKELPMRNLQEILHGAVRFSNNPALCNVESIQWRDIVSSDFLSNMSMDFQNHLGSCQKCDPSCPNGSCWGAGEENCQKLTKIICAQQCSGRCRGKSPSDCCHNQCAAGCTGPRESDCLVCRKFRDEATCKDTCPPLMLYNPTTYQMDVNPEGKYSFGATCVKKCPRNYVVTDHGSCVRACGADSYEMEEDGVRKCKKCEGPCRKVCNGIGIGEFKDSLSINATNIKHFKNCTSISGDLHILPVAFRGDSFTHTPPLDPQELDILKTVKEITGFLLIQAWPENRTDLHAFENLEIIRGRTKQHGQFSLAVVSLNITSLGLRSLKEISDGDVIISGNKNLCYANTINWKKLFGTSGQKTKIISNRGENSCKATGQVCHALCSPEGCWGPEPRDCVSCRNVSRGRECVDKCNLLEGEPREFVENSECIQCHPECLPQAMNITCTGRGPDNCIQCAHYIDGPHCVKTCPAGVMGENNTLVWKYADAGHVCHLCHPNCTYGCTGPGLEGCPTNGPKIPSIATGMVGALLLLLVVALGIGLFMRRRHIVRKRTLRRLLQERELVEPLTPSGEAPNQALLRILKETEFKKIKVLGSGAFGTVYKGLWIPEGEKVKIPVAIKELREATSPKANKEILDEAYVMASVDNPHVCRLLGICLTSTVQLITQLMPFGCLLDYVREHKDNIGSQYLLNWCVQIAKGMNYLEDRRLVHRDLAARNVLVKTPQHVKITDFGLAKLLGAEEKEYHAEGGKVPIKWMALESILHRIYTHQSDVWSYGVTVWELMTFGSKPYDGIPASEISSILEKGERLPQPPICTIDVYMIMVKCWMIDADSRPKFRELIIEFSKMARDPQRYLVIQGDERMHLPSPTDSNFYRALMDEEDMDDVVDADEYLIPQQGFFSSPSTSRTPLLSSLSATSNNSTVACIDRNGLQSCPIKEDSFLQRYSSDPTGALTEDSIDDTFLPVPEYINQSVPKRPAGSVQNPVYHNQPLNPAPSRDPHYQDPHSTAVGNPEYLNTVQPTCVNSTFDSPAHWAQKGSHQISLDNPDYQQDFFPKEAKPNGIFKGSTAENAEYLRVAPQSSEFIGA

Experiment [1] addresses T1, BTK (Homo sapiens (Human), UniProt Q06187). Description: Ramos RA1 cell lysis and immunoassay, total BTK degradation. Format: cell-based. Also noted: key to % BTK degradation (RAMOS, 24 h): Y: BTK bound in cells and BTK degradation occurred; concentration or dose not given beside the values; key to % BTK degradation (RAMOS, 10 uM, 24 h): Y: EGFR bound in cells and EGFR degradation occurred. The note with it: RAMOS cells. The procedure: Ramos RA 1 cells (ATCC) were cultured in RPMI-1640 media (Wisent) supplemented with 10% heat-inactivated FBS and 1% penicillin/streptomycin. Cells were seeded in 6-well plates at 1.71×10^6 cells/well and incubated at 37° C., 5% CO2 for 16 hours. Cells were treated with compound at the indicated concentrations or DMSO alone and incubated at 37° C., 5% CO2 for 24 hours. Cell suspensions were centrifugated at 1,400-1,600 RPM for 5 minutes at room temperature and supernatants were discarded. Cell pellets were resuspended with 1× RIPA buffer (Millipore) and incubated on ice for 15 minutes. Protein lysates were extracted by centrifugating at 20,000 RPM for 20 minutes at 4° C. Proteins were separated and total BTK protein levels were quantified by Simple Western Immunoassay (ProteinSimple) using the 12-230 kDa Jess Separation Module according to the manufacturer's protocol, using a protein concentration of 0.25 μg/μl and antibodies targeting BTK (clone #D3H5, Cell Signalling) and β-Actin (clone #AC-15, Santa Cruz) diluted to 1:400 and 1:10, respectively, where the latter was used as a loading control. An equal ratio of rabbit and mouse HRP-conjugated secondary antibodies was used for detection. BTK protein levels were quantified relative to S-Actin loading levels and subsequently normalized to the DMSO control. Phosphorylated BTK levels were quantified using the Protein Normalization Assay Module for Jess (ProteinSimple) according to the manufacturer's protocol, using a protein concentration of 1.5 μg/μl and an antibody targeting pBTK (Y223) (Cell Signalling) diluted to 1:50. Phosphorylated BTK levels were quantified relative to the Protein Normalization Reagent and subsequently normalized to the DMSO control.

The next experiment addresses RIPK2 (Homo sapiens (Human), UniProt O43353). Description: In vitro RIPK2 inhibition. The experiment is classed as biochemical. The settings on record: for remaining activity at 1 µM: read-out: % RIPK2 Remaining activity vs DMSO (1 μM, 3 h); for remaining activity at 10 µM: read-out: % RIPK2 Remaining activity vs DMSO (10 μM, 3 h).
Experiment [2] deals with T1, BTK. In words: Ramos RA1 cell lysis and immunoassay, phospho-BTK (Y223) inhibition. The settings on record: RAMOS cells, compound concentration 1 μM. The experiment is classed as cell-based. Also noted: key: X: BTK bound and autophosphoration of BTK inhibited in cells. In a few lines: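 Ramos RA1 cells treated with compound or DMSO for 24 h at 37° C., lysed in RIPA, analysed by Simple Western. Total BTK normalised to β-actin, pBTK (Y223) to total-protein reagent; both expressed relative to DMSO control.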

[3] abbreviates: compound concentration 10, 24 h.

A value given as a limit tells only on which side of the number the result lay.

Chain of RIPK2 (O43353 whole entry, species assumed): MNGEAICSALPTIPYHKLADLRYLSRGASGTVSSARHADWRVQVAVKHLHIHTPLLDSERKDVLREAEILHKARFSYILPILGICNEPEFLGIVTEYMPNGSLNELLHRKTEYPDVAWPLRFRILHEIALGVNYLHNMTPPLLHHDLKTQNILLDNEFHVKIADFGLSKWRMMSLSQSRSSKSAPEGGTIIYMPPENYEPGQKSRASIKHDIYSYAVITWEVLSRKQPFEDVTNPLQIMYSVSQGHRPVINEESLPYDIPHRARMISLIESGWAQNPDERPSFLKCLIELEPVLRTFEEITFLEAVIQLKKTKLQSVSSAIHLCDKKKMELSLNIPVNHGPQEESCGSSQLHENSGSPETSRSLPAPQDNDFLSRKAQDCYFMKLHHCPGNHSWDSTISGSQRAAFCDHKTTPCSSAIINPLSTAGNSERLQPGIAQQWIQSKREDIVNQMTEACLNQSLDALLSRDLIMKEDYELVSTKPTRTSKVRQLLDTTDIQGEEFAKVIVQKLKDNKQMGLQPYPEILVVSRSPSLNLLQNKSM
T1 sequence (Q06187 whole entry): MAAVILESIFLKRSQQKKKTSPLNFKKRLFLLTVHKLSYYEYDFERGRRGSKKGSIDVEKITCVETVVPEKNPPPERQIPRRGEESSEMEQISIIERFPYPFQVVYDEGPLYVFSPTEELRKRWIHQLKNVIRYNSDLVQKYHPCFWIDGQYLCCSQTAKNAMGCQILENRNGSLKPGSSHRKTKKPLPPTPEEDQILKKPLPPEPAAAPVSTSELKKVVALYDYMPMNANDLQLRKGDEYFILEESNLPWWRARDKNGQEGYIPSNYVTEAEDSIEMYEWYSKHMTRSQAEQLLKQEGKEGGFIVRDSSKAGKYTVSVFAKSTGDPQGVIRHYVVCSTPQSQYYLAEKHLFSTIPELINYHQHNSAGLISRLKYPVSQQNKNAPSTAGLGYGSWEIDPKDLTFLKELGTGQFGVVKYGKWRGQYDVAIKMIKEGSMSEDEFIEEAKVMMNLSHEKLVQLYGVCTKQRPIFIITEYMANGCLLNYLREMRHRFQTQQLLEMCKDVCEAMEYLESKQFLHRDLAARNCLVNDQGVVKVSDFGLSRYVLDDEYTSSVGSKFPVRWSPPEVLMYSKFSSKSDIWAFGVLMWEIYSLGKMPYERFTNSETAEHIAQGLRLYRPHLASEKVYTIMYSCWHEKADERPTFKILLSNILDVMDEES

By remaining activity is commonly meant the signal under treatment as a percentage of the control signal. As to `COCCOc1ccc(Nc2ncc(F)c(Nc3cccc(NC(=O)c4c(F)c(F)c(F)c(F)c4S(=O)(=O)N(C)C)c3)n2)cc1` [Compound I-59, 2-(N,N-dimethylsulfamoyl)-3,4,5,6-tetrafluoro-N-(3-((5-fluoro-2-((4-(2-methoxyethoxy)phenyl)amino)pyrimidin-4-yl)amino)phenyl)benzamide], on EGFR, the “EGFR degradation (A549, 1 μM, 24 h)” value is on record as “Y”. Moreover, the “EGFR degradation (A549, compound concentration, 24 h)” value on EGFR (compound concentration 5, 24 h) is listed as “Y”. Also, at BTK [1], the “% BTK degradation (RAMOS, 24 h)” value is recorded as “Y”. On RIPK2, the remaining activity at 1 µM was less than 50% and the remaining activity at 10 µM was less than 50%. On BTK [2], the “pBTK inhibition (RAMOS, 24 h)” value is recorded as “X”.
Take `COCCOc1ccc(Nc2ncc(F)c(Nc3cccc(Nc4c(F)c(F)c(F)c(F)c4[S@+](C)[O-])c3)n2)cc1` (stereo in doubt) [Compound I-63, 5-fluoro-N^2-(4-(2-methoxyethoxy)phenyl)-N^4-(3-((2,3,4,5-tetrafluoro-6-(methylsulfinyl)phenyl)amino)phenyl)pyrimidine-2,4-diamine]: on EGFR, the “EGFR degradation (A549, 1 μM, 24 h)” value is reported as “Y”. Further, the “EGFR degradation (A549, compound concentration, 24 h)” value on EGFR (setting [3]) is “Y”. The “% BTK degradation (RAMOS, 24 h)” value on BTK [1] is reported as “Y”. Also, at BTK [1] (10 uM), the “% BTK degradation (RAMOS, 10 uM, 24 h)” value is recorded as “Y”. For the same compound, the “pBTK inhibition (RAMOS, 24 h)” value at BTK [2] is listed as “X”.
Turning to `COCCOc1ccc(Nc2ncc(F)c(Nc3cccc(NC(=O)c4c(F)c(F)c(F)c(F)c4S(C)(=O)=O)c3)n2)cc1` [Compound I-61, 2,3,4,5-tetrafluoro-N-(3-((5-fluoro-2-((4-(2-methoxyethoxy)phenyl)amino)pyrimidin-4-yl)amino)phenyl)-6-(methylsulfonyl)benzamide], the “EGFR degradation (A549, 1 μM, 24 h)” value on EGFR is reported as “Y”. Further, at EGFR (setting [3]), the “EGFR degradation (A549, compound concentration, 24 h)” value is on record as “Y”. The “pBTK inhibition (RAMOS, 24 h)” value at BTK [2] was “X”.
As to `C[S@+]([O-])c1c(F)c(F)c(F)c(F)c1C(=O)Nc1ncnc2[nH]ccc12` (racemic) [Compound I-46, 2,3,4,5-tetrafluoro-6-(methylsulfinyl)-N-(7H-pyrrolo[2,3-d]pyrimidin-4-yl)benzamide], the “EGFR degradation (A549, 1 μM, 24 h)” value on EGFR is on record as “Y”. In addition, the “EGFR degradation (A549, compound concentration, 24 h)” value at EGFR (setting [3]) is listed as “Y”. The “% BTK degradation (RAMOS, 24 h)” value on BTK [1] is “Y”. Further, at RIPK2, the remaining activity at 1 µM was less than 50% and the remaining activity at 10 µM was 50 to 90%. Also, the “pBTK inhibition (RAMOS, 24 h)” value on BTK [2] is given as “X”.
For the compound `CN(C)S(=O)(=O)c1c(F)c(F)c(F)c(F)c1C(=O)NCCNc1ncnc2[nH]ccc12` [Compound I-47, N-(2-((7H-pyrrolo[2,3-d]pyrimidin-4-yl)amino)ethyl)-2-(N,N-dimethylsulfamoyl)-3,4,5,6-tetrafluorobenzamide], the “EGFR degradation (A549, 1 μM, 24 h)” value on EGFR was “Y”. Besides, the “EGFR degradation (A549, compound concentration, 24 h)” value on EGFR (setting [3]) is reported as “Y”. In addition, at BTK [1], the “% BTK degradation (RAMOS, 24 h)” value is “Y”. At RIPK2, the remaining activity at 1 µM was less than 50% and the remaining activity at 10 µM is less than 50%.
With `Nc1ncnc2c1c(-c1ccc(Oc3ccccc3)cc1)nn2[C@@H]1CCN(S(=O)(=O)c2c(F)c(F)c(F)c(F)c2OCF)C1` [Compound I-24, (R)-3-(4-phenoxyphenyl)-1-(1-((2,3,4,5-tetrafluoro-6-(fluoromethoxy)phenyl)sulfonyl)pyrrolidin-3-yl)-1H-pyrazolo[3,4-d]pyrimidin-4-amine], the “pBTK inhibition (RAMOS, 24 h)” value at BTK [2] is “X”.
Take `Nc1ncnc2c1c(-c1ccc(Oc3ccccc3)cc1)nn2CCNC(=O)c1c(F)c(F)c(F)c(F)c1S(N)(=O)=O` [Compound I-42, N-(2-(4-amino-3-(4-phenoxyphenyl)-1H-pyrazolo[3,4-d]pyrimidin-1-yl)ethyl)-2,3,4,5-tetrafluoro-6-sulfamoylbenzamide]: the “EGFR degradation (A549, 1 μM, 24 h)” value on EGFR is “Y”. For the same compound, the “EGFR degradation (A549, compound concentration, 24 h)” value on EGFR (setting [3]) is “Y”. For the same compound, the “% BTK degradation (RAMOS, 24 h)” value on BTK [1] was “Y”. For the same compound, at RIPK2, the remaining activity at 1 µM was greater than 90% and the remaining activity at 10 µM is greater than 90%. Moreover, at BTK [2], the “pBTK inhibition (RAMOS, 24 h)” value is given as “X”.
As for `CS(=O)(=O)c1c(F)c(F)c(F)c(F)c1C(=O)Nc1cc2c(Nc3ccc(F)c(Cl)c3)ncnc2cc1O[C@H]1CCOC1` [Compound I-5, (S)—N-(4-((3-chloro-4-fluorophenyl)amino)-7-((tetrahydrofuran-3-yl)oxy)quinazolin-6-yl)-2,3,4,5-tetrafluoro-6-(methylsulfonyl)benzamide], at EGFR, the “EGFR degradation (A549, 1 μM, 24 h)” value is recorded as “Y”. The “EGFR degradation (A549, compound concentration, 24 h)” value on EGFR (setting [3]) is on record as “Y”. Moreover, on BTK [1], the “% BTK degradation (RAMOS, 24 h)” value is listed as “Y”. Besides, the “pBTK inhibition (RAMOS, 24 h)” value on BTK [2] is given as “X”.
In the case of `CS(=O)(=O)c1c(F)c(F)c(F)c(F)c1C(=O)NCCCn1nc(-c2ccc(Oc3ccccc3)cc2)c2c(N)ncnc21` [Compound I-39, N-(3-(4-amino-3-(4-phenoxyphenyl)-1H-pyrazolo[3,4-d]pyrimidin-1-yl)propyl)-2,3,4,5-tetrafluoro-6-(methylsulfonyl)benzamide], the “EGFR degradation (A549, 1 μM, 24 h)” value on EGFR is “Y”. The “EGFR degradation (A549, compound concentration, 24 h)” value at EGFR (compound concentration 5, 24 h) is “Y”. Further, on BTK [1], the “% BTK degradation (RAMOS, 24 h)” value is on record as “Y”. Moreover, at RIPK2, the remaining activity at 1 µM was greater than 90% and the remaining activity at 10 µM is greater than 90%. Further, on BTK [2], the “pBTK inhibition (RAMOS, 24 h)” value is “X”.
On to `COCCOc1ccc(Nc2ncc(F)c(Nc3cccc(Nc4c(F)c(F)c(F)c(F)c4S(C)(=O)=O)c3)n2)cc1` [Compound I-64, 5-fluoro-N^2-(4-(2-methoxyethoxy)phenyl)-N^4-(3-((2,3,4,5-tetrafluoro-6-(methylsulfonyl)phenyl)amino)phenyl)pyrimidine-2,4-diamine], for which the “EGFR degradation (A549, 1 μM, 24 h)” value at EGFR is “Y”. Also, the “EGFR degradation (A549, compound concentration, 24 h)” value at EGFR (setting [3]) is given as “Y”. The “% BTK degradation (RAMOS, 24 h)” value on BTK [1] is “Y”. In addition, on BTK [2], the “pBTK inhibition (RAMOS, 24 h)” value is “X”.
As to `NS(=O)(=O)c1c(F)c(F)c(F)c(F)c1C(=O)NCCNc1ncnc2[nH]ccc12` [Compound I-48], the “EGFR degradation (A549, 1 μM, 24 h)” value on EGFR is listed as “Y”. Moreover, the “EGFR degradation (A549, compound concentration, 24 h)” value at EGFR (setting [3]) is recorded as “Y”. In addition, the “% BTK degradation (RAMOS, 24 h)” value at BTK [1] is reported as “Y”. Besides, at RIPK2, the remaining activity at 1 µM was less than 50% and the remaining activity at 10 µM was less than 50%.
As to `COCCOc1ccc(Nc2ncc(F)c(Nc3cccc(NC(=O)c4c(F)c(F)c(F)c(F)c4[S@+](C)[O-])c3)n2)cc1` (stereo in doubt) [Compound I-62, 2,3,4,5-tetrafluoro-N-(3-((5-fluoro-2-((4-(2-methoxyethoxy)phenyl)amino)pyrimidin-4-yl)amino)phenyl)-6-(methylsulfinyl)benzamide], the “EGFR degradation (A549, 1 μM, 24 h)” value on EGFR is “Y”. In addition, the “EGFR degradation (A549, compound concentration, 24 h)” value on EGFR (setting [3]) was “Y”. Further, the “% BTK degradation (RAMOS, 24 h)” value at BTK [1] is listed as “Y”. Also, the “pBTK inhibition (RAMOS, 24 h)” value at BTK [2] is recorded as “X”.
Turning to `CS(=O)(=O)c1c(F)c(F)c(F)c(F)c1CNCCNc1ncnc2[nH]ccc12` [Compound I-50, N^1-(7H-pyrrolo[2,3-d]pyrimidin-4-yl)-N2-(2,3,4,5-tetrafluoro-6-(methylsulfonyl)benzyl) ethane-1,2-diamine], on EGFR, the “EGFR degradation (A549, 1 μM, 24 h)” value is “Y”. Further, the “% BTK degradation (RAMOS, 24 h)” value on BTK [1] is on record as “Y”. Further, the “pBTK inhibition (RAMOS, 24 h)” value on BTK [2] is given as “X”.

For the origin of these results see US20240018153A1, “BENZENESULFONAMIDE DERIVATIVES AND USES THEREOF” (2692372 ONTARIO, INC., priority 2020, published 2024).
